Target: T1, Human ATX protein (Homo sapiens, UniProt Q13822)
T1 construct: made in house
Assay: Autotaxin (ATX) assay, FRET with FS-3 substrate
Type: biochemical
Conditions: 10 uM compound
Text: ATX (Autotaxin) is a 125 KDa glycoprotein with lysophospholipase D (LPLD) activity that generates the bioactive lipid lysophosphatidic acid (LPA) from lysophosphatidylcholine (LPC). The ATX biochemical assay utilizes a FRET (fluorescence resonance energy transfer) technology platform. The fluorescence signal of FRET substrate FS-3 is quenched due to intra-molecular FRET of a fluorophore to a non-fluorescing quencher (Ferguson, C. G., et al., Org Lett. 2006 May 11; 8(10): 2023-2026, which is incorporated by reference in its entirety). ATX catalyzes the hydrolysis of the substrate which separates the dabsyl quencher from the fluorescein reporter, which becomes fluorescent. The reaction is monitored by a SpectraMax M5 (Molecular Devices, Sunnyvale, Calif.) with at excitation wavelength 485 nm and emission wavelength […].
Fatty acid free-BSA (Sigma A8806): 10 mg/mL in H2O, stored at 4° C.
2×ATX assay buffer: 100 mM Tris, 280 mM NaCl, 10 mM KCl, 2 mM CaCl2, 2 mM MgCl2, pH 7.4.
Human ATX protein: expressed and purified in house. Stored at −80° C.
Substrate FS-3 (Echelon, L-2000): 100 μg in 77.74 μL H2O (1 mM stock), stored at −20° C.
384-well flat bottom plates—Corning #3575.
Compound dilution—All compounds were provided at 10 mM in 100% DMSO. In the first well, 2 μL of 10 mM compound was added to 78 μL of DMSO (1:40 dilution). In subsequent wells 3-fold dilution (total 10 dilutions) were performed.
1×ATX assay buffer was made up with a final concentration of 1 mg/mL fatty acid free-BSA using 2×ATX assay buffer, 10 mg/ml fatty acid free-BSA and ddH2O.
ATX protein was diluted with 1×ATX assay buffer to a concentration of 1.32 μg/mL (1.32×). 38 μL was added per well to the assay plate. The final concentration of ATX in the reaction as 1.0 μg/mL.
2 μL per well of compounds was transferred to provide the desired concentration. The plate was centrifuged, then incubated at room temperature for 30 minutes on the shaker.
FS-3 was diluted with 1×ATX assay buffer to a concentration of FS-3 of 10 μM (5×). Then, 10 μL was added per well to the assay plate. The final concentration of FS-3 in the reaction was 2 μM. The plate was centrifuged. The plate was kept shaking at room temperature for 2 hours. Because FS-3 substrate is light sensitive, plates were kept covered and protected from light.
Fluorescence was measured using SpectraMax M5 (excitation at 485 nm/emission at 538 nm, top read).

| inhibition at 10 µM [%] | SMILES |
| --- | --- |
| 50 | O=C(OCc1cc(C(F)(F)F)cc(C(F)(F)F)c1)N1CCn2nc(Br)cc2C1 [Example 407] |

Same assay, conditions: upper bound bins (no greater than 100, 250 or 500 nM); FS-3 2 μM, ATX 1.0 μg/mL

| SMILES | IC50 [nM] |
| --- | --- |
| CN1CC2CCC1CN2C(=O)c1cc2n(n1)CCCN(C(=O)OCc1cc(Cl)cc(C(F)(F)F)c1)C2 (centres unmarked) [Example 159, 3-chloro-5-(trifluoromethyl)benzyl 2-(5-methyl-2,5-diazabicyclo[2.2.2]octane-2-carbonyl)-7,8-dihydro-4H-pyrazolo[1,5-a][1,4]diazepine-5(6H)-carboxylate] | ≤ 100 |
| O=C(OCc1cc(Cl)cc(Cl)c1)N1CCCn2cncc2C1 [Example 133, 3,5-Dichlorobenzyl 6,7-dihydro-5H-imidazo[1,5-a][1,4]diazepine-8(9H)-carboxylate] | ≤ 100 |
| CC1CN(C(=O)c2cc3n(n2)CCCN(C(=O)OCc2cc(C(F)(F)F)cc(C(F)(F)F)c2)C3)CC(C)N1 (centres unmarked) [Example 223] | ≤ 100 |
| O=C(OCc1cc(C(F)(F)F)cc(C(F)(F)F)c1)N1CCCn2nc(C(=O)N3CCC(O)CC3)cc2C1 [Example 31, 3,5-Bis(trifluoromethyl)benzyl 2-(4-hydroxypiperidine-1-carbonyl)-7,8-dihydro-4H-pyrazolo[1,5-a][1,4]diazepine-5(6H)-carboxylate] | ≤ 100 |
| CC(C)(C)OC(=O)N1CC2CCC(C1)N2C(=O)c1cc2n(n1)CCN(C(=O)OCc1cc(C(F)(F)F)cc(C(F)(F)F)c1)C2 [Example 474] | ≤ 100 |
| O=C(OCc1cc(Cl)cc(Cl)c1)N1CCCn2nc(C(=O)N3CCCCC3)cc2C1 [Example 19, 3,5-Dichlorobenzyl 2-(piperidine-1-carbonyl)-7,8-dihydro-4H-pyrazolo[1,5-a][1,4]diazepine-5(6H)-carboxylate] | ≤ 100 |
| O=C(OCc1cc(Cl)cc(C(F)(F)F)c1)N1CCCn2nc(C(=O)N3CC4CCNC4C3)cc2C1 (centres unmarked) [Example 167] | ≤ 100 |
| CNC(=O)c1cc2n(n1)CCCN(C(=O)OCc1cc(Cl)cc(Cl)c1)C2 [Example 27, 3,5-Dichlorobenzyl 2-(methylcarbamoyl)-7,8-dihydro-4H-pyrazolo[1,5-a][1,4]diazepine-5(6H)-carboxylate] | ≤ 100 |
| CN1CCN(C(=O)c2cc3n(n2)CCCN(C(=O)OCc2cc(Cl)cc(C(F)(F)F)c2)C3)CC1C(=O)O (centres unmarked) [Example 185] | ≤ 100 |
| O=C(OCc1cc(C(F)(F)F)cc(C(F)(F)F)c1)N1CCCn2nc(S(=O)(=O)N3C4CCCC3CCC4)cc2C1 [Example 306] | ≤ 100 |
| CCOC(=O)c1cc2n(n1)CCCN(C(=O)OCc1cc(C(F)(F)F)cc(C(F)(F)F)c1)C2 [Example 2, 5-(3,5-Bis(trifluoromethyl)benzyl) 2-ethyl 7,8-dihydro-4H-pyrazolo[1,5-a][1,4]diazepine-2,5(6H)-dicarboxylate] | ≤ 100 |
| C[C@H]1CNC[C@H](C)N1C(=O)c1cc2n(n1)CCCN(C(=O)OCc1cc(Cl)cc(C(F)(F)F)c1)C2 [Example 160] | ≤ 100 |
| CN1CC2CN(C(=O)c3cc4n(n3)CCCN(C(=O)OCc3cc(Cl)cc(C(F)(F)F)c3)C4)CC2C1 (centres unmarked) [Example 168] | ≤ 100 |
| O=C(O)C1CC2CCCC(C1)N2C(=O)c1cc2n(n1)CCN(C(=O)CCc1cc(Cl)cc(Cl)c1)C2 (centres unmarked) [Example 92, 9-(5-(3-(3,5-Dichlorophenyl)propanoyl)-4,5,6,7-tetrahydropyrazolo[1,5-a]pyrazine-2-carbonyl)-9-azabicyclo[3.3.1]nonane-3-carboxylic acid] | ≤ 100 |
| O=C(O)C1CC2CCCC(C1)N2C(=O)c1cc2n(n1)CCCN(C(=O)NCc1cc(Cl)cc(Cl)c1)C2 (centres unmarked) [Example 49, 9-(5-((3,5-Dichlorobenzyl)carbamoyl)-5,6,7,8-tetrahydro-4H-pyrazolo[1,5-a][1,4]diazepine-2-carbonyl)-9-azabicyclo[3.3.1]nonane-3-carboxylic acid] | ≤ 100 |
| O=C(OCc1cc(Cl)cc(C(F)(F)F)c1)N1CCCn2nc(C(=O)N3CCN4CCC[C@H]4C3)cc2C1 [Example 211] | ≤ 100 |
| CN1CCN(C(=O)c2cc3n(n2)CCCN(C(=O)OCc2cc(Cl)cc(C(F)(F)F)c2)C3)CC1 [Example 216] | ≤ 100 |
| O=C(OCc1cc(C(F)(F)F)cc(C(F)(F)F)c1)N1CCCn2nc(CN3C4CCCC3CC4)cc2C1 [Example 292] | ≤ 250 |
| O=C(O)C1CC2CCC(C1)N2C(=O)c1cc2n(n1)CCCN(C(=O)OCc1cc(Cl)cc(Cl)c1)C2 (centres unmarked) [Example 97, 8-(5-(((3,5-Dichlorobenzyl)oxy)carbonyl)-5,6,7,8-tetrahydro-4H-pyrazolo[1,5-a][1,4]diazepine-2-carbonyl)-8-azabicyclo[3.2.1]octane-3-carboxylic acid] | ≤ 100 |
| O=C(O)C1CNCCN1C(=O)c1cc2n(n1)CCCN(C(=O)OCc1cc(Cl)cc(C(F)(F)F)c1)C2 (centres unmarked) [Example 226] | ≤ 100 |
| CN1CCN(C(=O)c2cc3n(n2)CCCN(C(=O)OCc2cc(Cl)cc(C(F)(F)F)c2)C3)CC1C(F)(F)F (centres unmarked) [Example 186] | ≤ 100 |
| O=C(OCc1cc(C(F)(F)F)cc(C(F)(F)F)c1)N1CCn2nc(C(=O)N3C4CCC3CNC4)cc2C1 [Example 426] | ≤ 100 |
| O=C(OCc1cc(C(F)(F)F)cc(C(F)(F)F)c1)N1CCCn2nc(C(=O)N3CC4CCC(C3)N4)cc2C1 [Example 221] | ≤ 100 |

Results, then the compound that gave them:

| IC50 [nM] | SMILES |
| --- | --- |
| ≤ 100 | COC(=O)C1CCN(C(=O)c2cc3n(n2)CCN(C(=O)OCc2cc(C(F)(F)F)cc(C(F)(F)F)c2)C3)CC1 [Example 494] |
| ≤ 100 | CC1(C)COCCN1CC(=O)c1cc2n(n1)CCN(C(=O)OCc1cc(C(F)(F)F)cc(C(F)(F)F)c1)C2 [Example 260] |
| ≤ 100 | NC(C(=O)O)c1cc2n(n1)CCCN(C(=O)OCc1cc(C(F)(F)F)cc(C(F)(F)F)c1)C2 (centres unmarked) [Example 390, 2-Amino-2-(5-(((3,5-bis(trifluoromethyl)benzyl)oxy)carbonyl)-5,6,7,8-tetrahydro-4H-pyrazolo[1,5-a][1,4]diazepin-2-yl)acetic acid] |
| ≤ 100 | CC1(C)CNCCN1C(=O)c1cc2n(n1)CCCN(C(=O)OCc1cc(C(F)(F)F)cc(C(F)(F)F)c1)C2 [Example 239] |
| ≤ 100 | CC(C)(C)OC(=O)N1CCC(c2cc3n(n2)CCCN(C(=O)OCc2cc(C(F)(F)F)cc(C(F)(F)F)c2)C3)C1 (centres unmarked) [Example 383] |
| ≤ 100 | CC(c1cc2n(n1)CCCN(C(=O)OCc1cc(C(F)(F)F)cc(C(F)(F)F)c1)C2)N1CCC(F)CC1 (centres unmarked) [Example 512] |
| ≤ 250 | O=C(O)C1CN(C(=O)OCc2cc(C(F)(F)F)cc(C(F)(F)F)c2)Cc2ccnn2C1 (centres unmarked) [Example 415] |
| ≤ 100 | O=C(CN1CCOCC1)c1cc2n(n1)CCCN(C(=O)OCc1cc(Cl)cc(C(F)(F)F)c1)C2 [Example 271] |
| ≤ 100 | CN1CCC(c2cc3n(n2)CCCN(C(=O)OCc2cc(C(F)(F)F)cc(C(F)(F)F)c2)C3)CC1 [Example 372, 3,5-bis(trifluoromethyl)benzyl 2-(1-methylpiperidin-4-yl)-7,8-dihydro-4H-pyrazolo[1,5-a][1,4]diazepine-5(6H)-carboxylate] |
| ≤ 100 | O=C(NCCO)c1cc2n(n1)CCN(C(=O)OCc1cc(C(F)(F)F)cc(C(F)(F)F)c1)C2 [Example 460, 3,5-bis(trifluoromethyl)benzyl 2-((2-hydroxyethyl)carbamoyl)-6,7-dihydropyrazolo[1,5-a]pyrazine-5(4H)-carboxylate] |
| ≤ 250 | CC(c1cc2n(n1)CCN(C(=O)OCc1cc(C(F)(F)F)cc(C(F)(F)F)c1)C2)N1CCC(C(=O)O)CC1 (centres unmarked) [Example 456] |
| ≤ 100 | O=C(OCc1cc(C(F)(F)F)cc(C(F)(F)F)c1)N1CCCn2nc(N3CCN4CCC[C@H]4C3)cc2C1 [Example 346] |
| ≤ 100 | CCC(Nc1cc2n(n1)CCCN(C(=O)OCc1cc(C(F)(F)F)cc(C(F)(F)F)c1)C2)C(=O)O (centres unmarked) [Example 362] |
| ≤ 250 | CC(Nc1cc2n(n1)CCCN(C(=O)OCc1cc(C(F)(F)F)cc(C(F)(F)F)c1)C2)C(=O)O (centres unmarked) [Example 361, 2-((5-(((3,5-bis(trifluoromethyl)benzyl)oxy)carbonyl)-5,6,7,8-tetra-hydro-4H-pyrazolo[1,5-a][1,4]diazepin-2-yl)amino)propanoic acid] |
| ≤ 100 | CC1(C)CNCCN1C(=O)c1cc2n(n1)CCN(C(=O)OCc1cc(Cl)cc(C(F)(F)F)c1)C2 [Example 432] |
| ≤ 250 | CC(c1cc2n(n1)CCN(C(=O)OCc1cc(C(F)(F)F)cc(C(F)(F)F)c1)C2)N1CCC(O)CC1 (centres unmarked) [Example 457] |
| ≤ 250 | O=C(OCc1cc(C(F)(F)F)cc(C(F)(F)F)c1)N1CCCn2nc(CNC3COC3)cc2C1 [Example 511] |

Source: patent US20160039825A1 (BIOGEN MA INC., priority 2013, published 2016)
